In patent US20090012140A1, “Preparation of Telmisartan Salts with Improved Solubility” (LEK PHARMACEUTICALS D.D, priority 2004, published 2009):

What was measured:
[1] = Amount dissolved after 30 minutes at 37° C. (50 mg of compound in 100 ml baker, stirring at 600/min); type: physicochemical; details: for Solubility compared with sodium salt of telmisartan manufactured by lyophilization: comparison in words; for C30 min: 30 minutes, 37° C., 600/min
Method: (§1) In order to prepare a pharmaceutical composition physical properties were measured. The solubility of the telmisartan of its salt in accordance with our invention surpasses the solubility of known forms of telmisartan, and are above 10 μg/ml in phosphate buffer pH=6.8 and above 50 μg/ml in a physiologically relevant medium if measured as above. […] The salts are also very soluble in water (i.e dissolving approximately 500 mg/mL of Na salt Form 2 produces a very viscous solution, which can hardly be stirred with a magnetic stirrer.

Solubility in water = type: physicochemical; details: produces a very viscous solution
Method: as §1

[2] = medium pH = 1.2, 50 mg in 100 ml
[3] = phosphate buffer pH = 6.8, 50 mg in 100 ml
[4] = physiologically relevant medium: phosphate buffer pH 6.76 + sodium taurocholate (2.5 mM) + lecitin (0.5 mM)

CCCc1nc2c(C)cc(-c3nc4ccccc4n3C)cc2n1Cc1ccc(-c2ccccc2C(=O)[O-])cc1.[Na+]
Solubility compared with sodium salt of telmisartan manufactured by lyophilization [1]: substantially surpasses that manufactured by lyophilization

CCCc1nc2c(C)cc(-c3nc4ccccc4n3C)cc2n1Cc1ccc(-c2ccccc2C(=O)[O-])cc1.[Na+] [Amorphous Na salt of telmisartan, Na Salt of Telmisartan]
C30 min [1, 2]: 394.6 µg/mL | C30 min [1, 3]: 29 µg/mL | C30 min [1, 4]: 167.3 µg/mL

CCCc1nc2c(C)cc(-c3nc4ccccc4n3C)cc2n1Cc1ccc(-c2ccccc2C(=O)O)cc1 [Amorphous telmisartan, telmisartan]
C30 min [1, 3]: 17.6 µg/mL | C30 min [1, 4]: 87.5 µg/mL

CCCc1nc2c(C)cc(-c3nc4ccccc4n3C)cc2n1Cc1ccc(-c2ccccc2C(=O)O)cc1 [Form A, telmisartan]
C30 min [1, 2]: >500 µg/mL | C30 min [1, 3]: 0.9 µg/mL | C30 min [1, 4]: 1.1 µg/mL

CCCc1nc2c(C)cc(-c3nc4ccccc4n3C)cc2n1Cc1ccc(-c2ccccc2C(=O)[O-])cc1.[Na+] [Na salt Form 2, Crystalline Na Salt of Telmisartane Form 2]
Solubility compared with sodium salt of telmisartan manufactured by lyophilization ([1]; listed as crystalline sodium salt of telmisartan): surpasses that of the sodium salt of telmisartan manufactured by lyophilization | Amount dissolving in water (Solubility in water): approximately 500 mg/mL
